In patent US6603023B2 (priority 1996, dated 2003):
Like-named read-outs stand apart in the source and are kept apart here. Marks after values point to notes of the source that are not given here.

Key:
CCRF-CEM/VBL100 = assay: cells; format: cell-based, human
Experimental: (§1) The drug-resistant cell lines were continuously cultured in the presence of the selecting agent, AD, DX, VBL or VM to maintain the drug resistant phenotypes. […] All cells were cultured in RPMI 1640-10% FBS at 37° C. 5% CO2 (see below).
(§2) The cells were cultured at an initial density of 5×10^4 cells/mL. They were maintained in a 5% CO2-humidified atmosphere at 37° C. in RPMI-1640 medium (GIBCO-BRL, Gaithersburg, Md.) containing penicillin (100 U/mL), streptomycin ([…]) (GIBCO-BRL) and 10% heat inactivate fetal bovine serum. Culture for cell suspension (such as for CCRF-CEM, P388 and sublines), were performed by the XTT-microculture tetrazonium method (Scudiero, D. A. et al., Cancer Res. 1988, 48, 4827-4833) in duplicate in 96-well microtiter plates.
(§3) 2′,3′-Bis(methoxy-4-nitro-5-sufophenyl)-5-[(phenylamino)carbonyl]2H-tetrazolium hyudroxide (XTT) was prepared at 1 mg/mL in prewarmed (37° C.) medium without serum. Phenazine methosulfate (PMS) and fresh XTT were mixed together to obtain 0.025 mM PMS-XTT solution (25 μL of the stock 5 mM PMS was added per 5 mL of 1 mg/mL XTT). Following a 72 h incubation, 50 μL of the assay aliquots were added to each well of the cell culture. After incubation at 37° C. for 4 h, absorbance at 450 nm and 630 nm was measured with a microplate reader (EL340, Bio-Tek Instruments, Inc., Winooski, Vt.).

CCRF-CEM/VM1 = assay: cells; format: cell-based, human
Experimental: as §1, §2, §3

[1] = test system: CCRF-CEM human T-cell acute lymphoblastic leukemia cell line; assay: XTT cytotoxicity (cell growth inhibition), CCRF-CEM; conditions: for times less active than corresponding epothilone A counterpart (cytotoxicity): see Table 1; for Rel. Value (potency relative to Epo B): CCRF-CEM leukemic cells
Experimental: (§4) The DC-3F hamster lung fibroblast cell line and its actinomycin D-selected sublines (DC-3F/ADII and DC-3F/ADX) were obtained from the Memorial Sloan-Kettering Cancer Center (MSKCC).
as §1, §2, §3

DC-3F/ADII = assay: SRB cytotoxicity, DC-3F/ADII; format: cell-based, hamster; conditions: Table 3; read-out: IC50
Experimental: as §4, §1
(§5) The cytotoxicity of the drug toward the monolayer cell cultures (such as DC-3F, MCF-7, SK-N-As and sublines) was determined in 96-well microtiter plates by the SRB method as described by Skehan and co-workers (Skehan, P., et al., J. Natl. Cancer Inst. 1990, 82, 1107-1112) for measuring the cellular protein content. Cultures were fixed with trichloroacetic acid and then stained for 30 min with 0.4% suforhodamine B dissolved in 1% acetic acid. Unbound dye was removed by acetic acid washes, and the protein-bound dye was extracted with an unbuffered Tris base (tris(hydroxy-methyl)aminomethane) for determination of absorbance at 570 nm in a 96-well microtiter plate reader. The experiments were carried out in duplicate. Each run entailed six to seven concentrations of the tested drugs. Data were analyzed with the median-effect plot (Chou, T.-C. & Talalay, P. T. (1984) Adv. Enzyme Regul. 22, 27-55) using a previously described computer program (Chou, J., & Chou T.-C. 1987, Dose-effect analysis with microcomputers: Quantitation of ED50, synergism, antagonism, low-dose risk, reception-ligand binding and enzyme kinetics, IBM-PC software and manual, Biosoft, Cambridge, U.K.).
(§6) Concerning Table 3, experiments were carried out using the cell lines DC-3F (parent hamster lung cells), DC-3F/ADII (moderate multidrug-resistant (MDR) cells) and DC-3F/ADX (very strong MDR cells).

DC-3F/ADX = assay: cells; format: cell-based, hamster; conditions: Table 3; read-out: IC50
Experimental: as §4, §1, §5, §6

[2] = test system: DC-3F hamster lung fibroblast cell line; assay: SRB cytotoxicity, DC-3F; format: cell-based; conditions: Table 3; read-out: IC50
Experimental: as §4, §1, §5

[3] = Table 6, single determinations, read-out: IC50
[4] = Table 7, CEM/VBL, read-out: IC50
[5] = Table 6, single determinations, listed as 6, read-out: IC50
[6] = Table 6, single determinations, listed as 4, read-out: IC50
[7] = Table 2, CCRF-CEM/VLB, read-out: IC50
[8] = Table 2, CCR-CEM/VM-1, read-out: IC50
[9] = Table 5, CCRF-CEM/VLB, single determinations, read-out: IC50
[10] = Table 6, read-out: IC50 (mean ± of determinations, in parentheses)
[11] = Table 6, single determinations, listed as 8, read-out: IC50
[12] = Table 6, single determinations, listed as EPOTHILONE B (Synthetic), read-out: IC50

C/C(=C\c1csc(C)n1)[C@@H]1C/C=C\CCCC[C@H](O)[C@@H](C)C(=O)C(C)(C)[C@@H](O)CC(=O)O1 [#14, Desmethyldesoxyepothilone A]
IC50 (CCRF-CEM/VBL100; Table 1, XTT, read-out: IC50): 5750 nM
IC50 (CCRF-CEM/VBL100; [3]): 5750 nM
IC50 (CCRF-CEM/VBL100; [4]): 5750 nM
IC50 (CCRF-CEM/VM1; Table 1, XTT, read-out: IC50): 6290 nM
IC50 (CCRF-CEM/VM1; [3]): 6290 nM
IC50 ([1]; Table 1, XTT): 5000 nM
IC50 ([1]; Table 6, single determinations): 5420 nM
IC50 ([1]; Table 7, CEM): 5420 nM
times less active than corresponding epothilone A counterpart (cytotoxicity) [1]: approximately 200 times

CC(=Cc1csc(C)n1)C1CC=CCCCC(C)C(O)C(C)C(=O)C(C)(C)C(O)CC(=O)O1 (stereo not shown) [#6]
IC50 (CCRF-CEM/VBL100; [5]): 35 nM
IC50 (CCRF-CEM/VBL100; Table 7, CEM/VBL, listed as 6, read-out: IC50): 35 nM
IC50 (CCRF-CEM/VBL100; read-out: IC50): 35 nM
IC50 (CCRF-CEM/VM1; [5]): 111 nM
IC50 [1]: 52 nM
Rel. Value (potency relative to Epo B) [1]: 1/149
IC50 ([1]; Table 6, single determinations, listed as 6): 52 nM
IC50 ([1]; Table 7, CEM, listed as 6): 52 nM

CC(=Cc1csc(C)n1)C1CC=CCCCC(C)C(O)C(C)C(=O)C(C)(C)C(O)CC(=O)O1 (stereo not shown) [#4]
IC50 (CCRF-CEM/VBL100; [6]): 43000 nM
IC50 (CCRF-CEM/VBL100; Table 7, CEM/VBL, listed as 4, read-out: IC50): 43800 nM
IC50 (CCRF-CEM/VM1; [6]): 2760 nM
IC50 ([1]; Table 6, single determinations, listed as 4): 2120 nM
IC50 ([1]; Table 7, CEM, listed as 4): 2100 nM

CC(=Cc1csc(C)n1)C1CC2OC2CC=CCCCCC(C)(C)CCC(=O)O1 (stereo not shown) [#3]
IC50 (DC-3F/ADII): 3000 nM
IC50 (CCRF-CEM/VBL100; [7]): 22400 nM
(B)/(A) ratio (fold resistance >1, collateral sensitivity <1) (CCRF-CEM/VBL100; Table 2A): (0.082)^b
IC50 (CCRF-CEM/VBL100; Table 2A, MDR cell line, read-out: IC50 (B)): 22400 nM
IC50 (CCRF-CEM/VBL100; [3]): 22400 nM
IC50 (CCRF-CEM/VBL100; [4]): 22400 nM
IC50 (CCRF-CEM/VM1; [8]): 11600 nM
(C)/(A) ratio (fold resistance >1, collateral sensitivity <1) (CCRF-CEM/VM1; Table 2A): (0.043)^b
IC50 (CCRF-CEM/VM1; Table 2A, Topo II gene mutated cell line, read-out: IC50 (C)): 11600 nM
IC50 (CCRF-CEM/VM1; [3]): 11600 nM
IC50 (DC-3F/ADX): 972 nM
IC50 [2]: 9520 nM
IC50 ([1]; Table 2): 272000 nM
IC50 ([1]; Table 6, single determinations): 272000 nM
IC50 ([1]; Table 7, CEM): 272000 nM
IC50 ([1]; read-out: IC50 (A), Table 2A, parent cell line): 272000 nM

C/C(=C\c1csc(C)n1)[C@@H]1C[C@@H]2O[C@]2(C)CCC[C@H](C)[C@H](O)[C@@H](C)C(=O)C(C)(C)[C@@H](O)CC(=O)O1 [#8, epothilone B]
IC50 (CCRF-CEM/VBL100; [9]): 1.7 nM
IC50 (CCRF-CEM/VBL100; [10]): 2.13 nM
IC50 (CCRF-CEM/VBL100; [11]): 2.9 nM
IC50 (CCRF-CEM/VBL100; [12]): 3.1 nM
IC50 (CCRF-CEM/VBL100; Table 7, CEM/VBL, listed as synthetic epothilone B, read-out: IC50): 2.93 nM
IC50 (CCRF-CEM/VM1; [10]): 1.26 nM
IC50 (CCRF-CEM/VM1; [11]): 4.4 nM
IC50 (CCRF-CEM/VM1; [12]): 1.8 nM
IC50 ([1]; Table 5, single determinations): 0.42 nM
IC50 ([1]; Table 6, single determinations, listed as 8): 0.82 nM
IC50 ([1]; Table 6, single determinations, listed as EPOTHILONE B (Synthetic)): 0.55 nM
IC50 ([1]; Table 7, CEM, listed as synthetic epothilone B): 0.82 nM
IC50 ([1]; read-out: IC50 (mean ± of determinations, in parentheses), Table 6): 0.35 nM

C/C(=C\c1csc(C)n1)C1CC2OC2CCCCC(O)C(C)C(=O)C(C)(C)C(O)CC(=O)O1 (stereo not shown) [#15, 8-Desmethylepothilone A]
IC50 (CCRF-CEM/VBL100; Table 1, XTT, read-out: IC50): 2470 nM
IC50 (CCRF-CEM/VBL100; [3]): 2470 nM
IC50 (CCRF-CEM/VBL100; [4]): 2470 nM
IC50 (CCRF-CEM/VM1; Table 1, XTT, read-out: IC50): 764 nM
IC50 (CCRF-CEM/VM1; [3]): 764 nM
IC50 [1]: 440 nM
Rel. Value (potency relative to Epo B) [1]: 1/1257
IC50 ([1]; Table 1, XTT): 439 nM
IC50 ([1]; Table 6, single determinations): 439 nM
IC50 ([1]; Table 7, CEM): 439 nM
times less active than corresponding epothilone A counterpart (cytotoxicity) [1]: approximately 200 times

C/C(=C\c1csc(C)n1)[C@@H]1C[C@@H]2O[C@@H]2CCC[C@H](C)[C@H](O)[C@@H](C)C(=O)C(C)(C)[C@@H](O)CC(=O)O1 [EPOTHILONE A SYNTHETIC, epothilone A]
IC50 (DC-3F/ADII): 13.2 nM
IC50 (CCRF-CEM/VBL100; [7]): 20.3 nM
IC50 (CCRF-CEM/VBL100; [9]): 15 nM
IC50 (CCRF-CEM/VM1; [8]): 3.4 nM
IC50 (DC-3F/ADX): 70 nM
IC50 [2]: 3.54 nM
IC50 ([1]; Table 2): 2.9 nM
IC50 ([1]; Table 5, single determinations): 2.1 nM
